Test results from patent publication US8173638B2 (Boehringer Ingelheim International GmbH, priority 2006, dated 2012).
pEC50: −log10 of the molar value.

Biological target: T1, human CB2R (Homo sapiens, UniProt P34972)
T1 construct: host or cells: CHO cells
Experiment: CB2R mediated modulation of cAMP synthesis
Type: cell-based
Conditions: 0.5 h; CHO cells expressing human CB2R; cAMP inhibited by 1 uM CP55940 defined as 100%; read-out: Agonist Efficacy (%)
Method: B. CB2R Mediated Modulation of cAMP Synthesis:
CHO cells expressing human CB2R (Euroscreen) were plated at a density of 5000 cells per well in 384 well plates and incubated overnight at 37° C. After removing the media, the cells were treated with test compounds diluted in stimulation buffer containing 1 mM IBMX, 0.25% BSA and 10 uM Forskolin. The assay was incubated for 30 minutes at 37° C. Cells were lysed and the cAMP concentration was measured using DiscoverX-XS cAMP kit, following the manufacturer's protocol. In this setting, agonists will decrease forskolin induced production of cAMP while inverse agonists will further increase forskolin induced production of cAMP. EC50 of agonists were calculated as follows. The maximal amount of cAMP produced by forskolin compared to the level of cAMP inhibited by 1 uM CP55940 is defined as 100%. […] Data was analyzed using a four-parameter logistic model. (Model 205 of XLfit 4.0).

T1 sequence (P34972 whole entry): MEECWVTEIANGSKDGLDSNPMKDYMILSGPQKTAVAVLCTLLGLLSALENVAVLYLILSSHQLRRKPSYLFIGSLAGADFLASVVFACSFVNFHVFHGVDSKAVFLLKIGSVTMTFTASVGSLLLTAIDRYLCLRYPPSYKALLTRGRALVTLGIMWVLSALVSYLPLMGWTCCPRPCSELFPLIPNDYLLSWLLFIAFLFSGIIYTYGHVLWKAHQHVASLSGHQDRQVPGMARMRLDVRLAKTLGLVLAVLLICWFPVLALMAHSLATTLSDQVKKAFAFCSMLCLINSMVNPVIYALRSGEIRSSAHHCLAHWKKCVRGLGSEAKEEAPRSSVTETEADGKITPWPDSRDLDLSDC

| Compound | Emax |
| --- | --- |
| O=C(Nc1ccc2ccccc2c1)N1CCCN(C(=O)c2ccc(C(F)(F)F)cc2)CC1 [Compound 92, 4-(4-Trifluoromethyl-benzoyl)-[1,4]diazepane-1-carboxylic acid naphthalen-2-ylamide] | 96% |
| CC(C)c1ccc(NC(=O)N2CCCN(C(=O)CCC3CCCCC3)CC2)cc1 [Compound 56, 4-(3-Cyclohexyl-propionyl)-[1,4]diazepane-1-carboxylic acid (4-isopropyl-phenyl)-amide] | 103% |
| O=C(CC1CCCC1)N1CCCN(C(=O)Nc2ccc(SC(F)(F)F)cc2)CC1 [Compound 82, 4-(2-cyclopentyl-acetyl)-[1,4]diazepane-1-carboxylic acid (4-trifluoromethylsulfanyl-phenyl)-amide] | 92% |
| CC(C)c1ccc(NC(=O)N2CCCN(C(=O)c3ccc(Cl)cc3)CC2)cc1 [Compound 41, 4-(4-Chloro-benzoyl)-[1,4]diazepane-1-carboxylic acid (4-isopropyl-phenyl)-amide] | 95% |
| O=C(Nc1ccc(C(F)(F)F)cc1)N1CCCN(C(=O)C2CCCCC2)CC1 [Compound 128, 4-Cyclohexanecarbonyl-[1,4]diazepane-1-carboxylic acid (4-trifluoromethyl-phenyl)-amide] | 107% |
| CC(C)(C)c1cc(NC(=O)N2CCCN(C(=O)CN3CCC(F)(F)CC3)CC2)no1 [Compound 229, 4-[2-(4,4-Difluoro-piperidin-1-yl)-acetyl]-[1,4]diazepane-1-carboxylic acid (5-tert-butyl-isoxazol-3-yl)-amide] | 104% |
| O=C(Nc1ccc(SC(F)(F)F)cc1)N1CCCN(C(=O)C2CCOCC2)CC1 [Compound 81, 4-(Tetrahydro-pyran-4-carbonyl)-[1,4]diazepane-1-carboxylic acid (4-trifluoromethylsulfanyl-phenyl)-amide] | 96% |

Same assay, conditions: found through the use of the described assays (CB2 agonists); qualitative statement

| Compound | agonistic activity |
| --- | --- |
| Cc1ccc(C(=O)N2CCCN(C(=O)Nc3ccc(C(C)(C)C)cc3)CC2)cc1 [4-(4-Methyl-benzoyl)-[1,4]diazepane-1-carboxylic acid (4-tert-butyl-phenyl)-amide] | agonistic activity |
| O=C(Nc1cnc2ccccc2c1)N1CCCN(C(=O)C2CCOCC2)CC1 [4-(Tetrahydro-pyran-4-carbonyl)-[1,4]diazepane-1-carboxylic acid quinolin-3-ylamide] | agonistic activity |
| CC(C)(C)c1ccc(NC(=O)N2CCCN(C(=O)CN3CCSCC3)CC2)cc1 [4-(2-Thiomorpholin-4-yl-acetyl)-[1,4]diazepane-1-carboxylic acid (4-tert-butyl-phenyl)-amide] | agonistic activity |
| CC1(C(=O)N2CCCN(C(=O)Nc3cc(C(C)(C)C)on3)CC2)CCCCC1 [4-(1-Methyl-cyclohexanecarbonyl)-[1,4]diazepane-1-carboxylic acid (5-tert-butyl-isoxazol-3-yl)-amide] | agonistic activity |
| O=C(Nc1cc(-c2ccccc2)on1)N1CCCN(C(=O)C2CCOCC2)CC1 [4-(Tetrahydro-pyran-4-carbonyl)-[1,4]diazepane-1-carboxylic acid (5-phenyl-isoxazol-3-yl)-amide] | agonistic activity |
| O=C(Nc1ccc2ccccc2c1)N1CCCN(C(=O)C2CCCCC2)CC1 [4-Cyclohexanecarbonyl-[1,4]diazepane-1-carboxylic acid naphthalen-2-ylamide] | agonistic activity |
| CC(C)(C)c1cc(NC(=O)N2CCCN(C(=O)c3ccc(C(F)(F)F)cc3)CC2)no1 [4-(4-Trifluoromethyl-benzoyl)-[1,4]diazepane-1-carboxylic acid (5-tert-butyl-isoxazol-3-yl)-amide] | agonistic activity |
| CCC(C)c1ccc(NC(=O)N2CCCN(C(=O)C3CCOCC3)CC2)nc1 (stereo not drawn) [4-(Tetrahydro-pyran-4-carbonyl)-[1,4]diazepane-1-carboxylic acid (5-sec-butyl-pyridin-2-yl)-amide] | agonistic activity |
| CCCC(O)c1ccc(NC(=O)N2CCCN(C(=O)CC3CCCC3)CC2)cc1 (stereo not drawn) [4-(2-Cyclopentyl-acetyl)-[1,4]diazepane-1-carboxylic acid [4-(1-hydroxy-butyl)-phenyl]-amide] | agonistic activity |
| Cc1nc(NC(=O)N2CCCN(C(=O)C3CCOCC3)CC2)sc1C(C)(C)C [4-(Tetrahydro-pyran-4-carbonyl)-[1,4]diazepane-1-carboxylic acid (5-tert-butyl-4-methyl-thiazol-2-yl)-amide] | agonistic activity |
| CC(C)(C)c1ccc(NC(=O)N2CCCN(C(=O)CNc3ccccc3)CC2)cc1 [4-(2-Phenylamino-acetyl)-[1,4]diazepane-1-carboxylic acid (4-tert-butyl-phenyl)-amide] | agonistic activity |
| O=C(CC1CCCC1)N1CCCN(C(=O)Nc2ccc3c(c2)OC(F)(F)O3)CC1 [4-(2-Cyclopentyl-acetyl)-[1,4]diazepane-1-carboxylic acid (2,2-difluoro-benzo[1,3]dioxol-5-yl)-amide] | agonistic activity |
| CC(C)(C)c1ccc(NC(=O)N2CCCN(C(=O)c3ccc(Cl)c(Cl)c3)CC2)cc1 [4-(3,4-Dichloro-benzoyl)-[1,4]diazepane-1-carboxylic acid (4-tert-butyl-phenyl)-amide] | agonistic activity |
| O=C(Nc1ccc(C(F)(F)F)cc1)N1CCCN(C(=O)c2ccccc2)CC1 [4-Benzoyl-[1,4]diazepane-1-carboxylic acid (4-trifluoromethyl-phenyl)-amide] | agonistic activity |
| CC(C)(C)c1cc(NC(=O)N2CCCN(C(=O)C3CCCN(S(C)(=O)=O)C3)CC2)no1 (stereo not drawn) [4-(1-Methanesulfonyl-piperidine-3-carbonyl)-[1,4]diazepane-1-carboxylic acid (5-tert-butyl-isoxazol-3-yl)-amide] | agonistic activity |
| CC(C)(C)c1cc(NC(=O)N2CCCN(C(=O)C3CCC(F)(F)CC3)CC2)on1 [4-(4,4-Difluoro-cyclohexanecarbonyl)-[1,4]diazepane-1-carboxylic acid (3-tert-butyl-isoxazol-5-yl)-amide] | agonistic activity |
| O=C(CC1CCCC1)N1CCCN(C(=O)Nc2cc(Cl)cc(Cl)c2)CC1 [4-(2-Cyclopentyl-acetyl)-[1,4]diazepane-1-carboxylic acid (3,5-dichloro-phenyl)-amide] | agonistic activity |
| O=C(Nc1nc2c(s1)CCCC2)N1CCCN(C(=O)c2ccc(Cl)cc2)CC1 [4-(4-Chloro-benzoyl)-[1,4]diazepane-1-carboxylic acid (4,5,6,7-tetrahydro-benzothiazol-2-yl)-amide] | agonistic activity |
| CC(C)(C)c1cc(NC(=O)N2CCCN(C(=O)C3CCNCC3)CC2)no1 [4-(Piperidine-4-carbonyl)-[1,4]diazepane-1-carboxylic acid (5-tert-butyl-isoxazol-3-yl)-amide] | agonistic activity |
| CC(C)(C)c1cc(NC(=O)N2CCCN(C(=O)N3CCCCC3)CC2)no1 [4-(Piperidine-1-carbonyl)-[1,4]diazepane-1-carboxylic acid (5-tert-butyl-isoxazol-3-yl)-amide] | agonistic activity |
| O=C(Nc1ccc2ccccc2c1)N1CCCN(C(=O)c2cc(Cl)ccc2Cl)CC1 [4-(2,5-Dichloro-benzoyl)-[1,4]diazepane-1-carboxylic acid naphthalen-2-ylamide] | agonistic activity |
| CCc1ccc(NC(=O)N2CCCN(C(=O)CC3CCCC3)CC2)cc1 [4-(2-Cyclopentyl-acetyl)-[1,4]diazepane-1-carboxylic acid (4-ethyl-phenyl)-amide] | agonistic activity |
| O=C(Nc1ccc(Cl)c(Cl)c1)N1CCCN(C(=O)c2ccc(Cl)cc2)CC1 [4-(4-Chloro-benzoyl)-[1,4]diazepane-1-carboxylic acid (3,4-dichloro-phenyl)-amide] | agonistic activity |
| N#Cc1ccc(NC(=O)N2CCCN(C(=O)CCC3CCCC3)CC2)cc1 [4-(3-Cyclopentyl-propionyl)-[1,4]diazepane-1-carboxylic acid (4-cyano-phenyl)-amide] | agonistic activity |
| CC(C)(C)c1cc(NC(=O)N2CCCN(C(=O)C3CCCCO3)CC2)no1 (stereo not drawn) [4-(Tetrahydro-pyran-2-carbonyl)-[1,4]diazepane-1-carboxylic acid (5-tert-butyl-isoxazol-3-yl)-amide] | agonistic activity |
| O=C(CCC1CC1)N1CCCN(C(=O)Nc2ccc3ccccc3c2)CC1 [4-(3-Cyclopropyl-propionyl)-[1,4]diazepane-1-carboxylic acid naphthalen-2-ylamide] | agonistic activity |
| CC(C)(C)c1cc(NC(=O)N2CCCN(C(=O)C3CCC(=O)CC3)CC2)no1 [4-(4-Oxo-cyclohexanecarbonyl)-[1,4]diazepane-1-carboxylic acid (5-tert-butyl-isoxazol-3-yl)-amide] | agonistic activity |
| CC(C)(C)c1ccc(NC(=O)N2CCCN(C(=O)COc3ccccc3)CC2)cc1 [4-(2-Phenoxy-acetyl)-[1,4]diazepane-1-carboxylic acid (4-tert-butyl-phenyl)-amide] | agonistic activity |

Same assay, conditions: read-out: hCB2 cAMP EC50

| Compound | pEC50 |
| --- | --- |
| O=C(Nc1ccc2ccccc2c1)N1CCCN(C(=O)c2ccc(C(F)(F)F)cc2)CC1 [Compound 92, 4-(4-Trifluoromethyl-benzoyl)-[1,4]diazepane-1-carboxylic acid naphthalen-2-ylamide] | 7.85 |
| CC(C)c1ccc(NC(=O)N2CCCN(C(=O)CCC3CCCCC3)CC2)cc1 [Compound 56, 4-(3-Cyclohexyl-propionyl)-[1,4]diazepane-1-carboxylic acid (4-isopropyl-phenyl)-amide] | 7.66 |
| O=C(CC1CCCC1)N1CCCN(C(=O)Nc2ccc(SC(F)(F)F)cc2)CC1 [Compound 82, 4-(2-cyclopentyl-acetyl)-[1,4]diazepane-1-carboxylic acid (4-trifluoromethylsulfanyl-phenyl)-amide] | 7.44 |
| CC(C)c1ccc(NC(=O)N2CCCN(C(=O)c3ccc(Cl)cc3)CC2)cc1 [Compound 41, 4-(4-Chloro-benzoyl)-[1,4]diazepane-1-carboxylic acid (4-isopropyl-phenyl)-amide] | 7.37 |
| O=C(Nc1ccc(C(F)(F)F)cc1)N1CCCN(C(=O)C2CCCCC2)CC1 [Compound 128, 4-Cyclohexanecarbonyl-[1,4]diazepane-1-carboxylic acid (4-trifluoromethyl-phenyl)-amide] | 7.15 |
| CC(C)(C)c1cc(NC(=O)N2CCCN(C(=O)CN3CCC(F)(F)CC3)CC2)no1 [Compound 229, 4-[2-(4,4-Difluoro-piperidin-1-yl)-acetyl]-[1,4]diazepane-1-carboxylic acid (5-tert-butyl-isoxazol-3-yl)-amide] | 7.62 |
| O=C(Nc1ccc(SC(F)(F)F)cc1)N1CCCN(C(=O)C2CCOCC2)CC1 [Compound 81, 4-(Tetrahydro-pyran-4-carbonyl)-[1,4]diazepane-1-carboxylic acid (4-trifluoromethylsulfanyl-phenyl)-amide] | 6.92 |
